The text below walks through data of PMC12552119, “Tailored structured peptide design with a key-cutting machine approach” (Nature Machine Intelligence, 2025).

“Also recorded” adds a separate entry of the source. Read-outs that look alike come from different tables or passages of the source. Where no end group is shown, it is not given here.

One data set concerns E. coli ATCC 11775. In kind it is cell-based, Escherichia coli. Conditions: ATCC 11775, 24 h. As for the experimental part: (§1) Fig. 2 Antimicrobial activity and secondary structure of computationally designed peptides. a, Structure prediction of the synthesized peptides. b, Heatmap of the antimicrobial activities of the peptides against 11 clinically relevant pathogens, including four strains resistant to conventional antibiotics. Briefly, 10^6 bacterial cells and serially diluted peptides (1-64 μmol l^−1) were incubated at 37 °C. One day after treatment, the optical density at 600 nm was measured in a microplate reader to evaluate bacterial growth in the presence of the peptides. MIC values in the heatmap are the mode of the replicates in each condition. c–f, Ternary plots showing the percentage of secondary structure for each peptide (at 50 μmol l^−1) in four different solvents: water (c), 60% TFE in water (d), 10 mmol l^−1 SDS in water (e) and 50% methanol (MeOH) in water (f). Secondary structure fractions were calculated using the BeStSel server. […] An error of one column cannot be fully excluded. / Panel b: AT1, AT2, AT3 and all blank cells print no number and are left out.
Broth microdilution assays[64] were conducted to establish the MIC for each peptide. Peptides were added to untreated polystyrene 96-well microtiter plates and serially diluted twofold in sterile water, ranging from 1 to 64 μmol l^−1. […]

Data set [1] deals with E. faecium ATCC 700221 - VRE. In kind it is cell-based. Conditions: ATCC 700221, 24 h. The protocol:
as §1
(§2) Broth microdilution assays[64] were conducted to establish the MIC for each peptide. Peptides were added to untreated polystyrene 96-well microtiter plates and serially diluted twofold in sterile water, ranging from 1 to 64 μmol l^−1. A bacterial inoculum at a concentration of 10^6 CFU ml^−1 in LB medium was then mixed in a 1:1 ratio with the peptide solution. […] Each assay was performed in three independent replicates.

The subject of data set [2] is A. baumannii ATCC 19606. In kind it is cell-based, Acinetobacter baumannii. The protocol: as §1
(§3) In this study, we used the following pathogenic bacterial strains: A. baumannii ATCC 19606, E. coli AIC221 (E. coli MG1655 phnE_2::FRT (control strain for AIC222)) and E. coli AIC222 (E. coli MG1655 pmrA53 phnE_2::FRT (polymyxin resistant; colistin-resistant strain)), Klebsiella pneumoniae ATCC 13883, Pseudomonas aeruginosa PAO1, P. aeruginosa PA14 and Staphylococcus aureus ATCC 12600. All pathogens were grown in Luria–Bertani (LB) broth and on LB agar. Pseudomonas isolation (P. aeruginosa strains) agar plates were exclusively used in the case of Pseudomonas species. In all the experiments, bacteria were inoculated from one isolated colony and grown overnight (16 h) in liquid medium at 37 °C. On the following day, inocula were diluted 1:100 in fresh media and incubated at 37 °C to mid-logarithmic phase.
as §2

The format of data set [3] is in vivo, CD-1 mice. Conditions: deep thigh infection model. The protocol:
Six-week-old female CD-1 mice were rendered neutropenic by two doses of cyclophosphamide (150 mg kg^−1 and 100 mg kg^−1) applied intraperitoneally 3 and 1 d before the infection. On day 4 of the experiment, the mice were infected in their right thighs with a 100-μl intramuscular injection of the A. baumannii ATCC 19606 in PBS at concentration of 5 × 10^6 CFU ml^−1. The bacterial cells were grown in LB broth, washed twice with PBS solution and diluted at the desired concentration. The peptides were administrated intraperitoneally 2 h after the infection. Two days after infection mice were euthanized, and the tissue from the right thigh was excised, homogenized using a bead beater (25 Hz for 20 min), tenfold serially diluted, and plated on McConkey agar plates for bacterial colony counting. The experiments were performed using six mice per group. […]
Figure S6. […] Mouse weight was monitored throughout the duration of the (b) skin abscess model (4 days total) and the (e) deep thigh infection model (8 days total) to assess potential toxic effects of both the bacterial load and the designed peptides. […] Anti-infective activity against A. baumannii ATCC 19606 was evaluated 4 days after intraperitoneal peptide administration (n = 6). […]
(§4) Statistical significance in panel d was determined using one-way ANOVA followed by Dunnett’s test; P values are shown in the graphs. […]

A further data set deals with K. pneumoniae ATCC 13883. In kind it is cell-based, Klebsiella pneumoniae. Conditions: ATCC 13883, 24 h. As for the experimental part:
as §1, §3, §2

In data set [4] the test system is A. baumannii ATCC 19606. Briefly: Skin abscess infection mouse model, bacterial load. In kind it is in vivo, CD-1 mice. Conditions: single dose at MIC on the wound 1 h after infection, n = 6. As for the experimental part: Fig. 4 Anti-infective activity of designed peptides in a skin scarification animal model. a, Schematic representation of the skin abscess mouse model used to assess the anti-infective activity of the designed peptides (n = 6) against A. baumannii ATCC 19606. […] Statistical significance in panel b was determined using one-way ANOVA followed by Dunnett’s test; P values are shown in the graphs. In the violin, the centre line represents the […], the box limits the first and third quartiles and the whiskers (minima and maxima) represent 1.5 × the interquartile range. Panel a created with BioRender.com. Source data
The backs of six-week-old female CD-1 mice under anaesthesia were shaved and injured with a superficial linear skin abrasion made with a needle. An aliquot of A. baumannii ATCC 19606 (2 × 10^6 CFU ml^−1; 20 μl) previously grown in LB medium until 0.5 optical density ml^−1 (optical value at 600 nm) and then washed twice with sterile PBS (pH 7.4, 9,391 g for 3 min) was added to the scratched area. Peptides diluted in sterile water at MIC value were administered to the wound area 1 h after the infection. Two and four days after infection animals were euthanized, and the scarified skin was excised, homogenized using a bead beater (25 Hz for 20 min), tenfold serially diluted, and plated on McConkey agar plates for CFU quantification. […]

Data set [5] concerns A. baumannii ATCC 19606. As to the kind of experiment: Deep thigh infection mouse model, bacterial load. In kind it is in vivo, CD-1 mice. Conditions: n = 6; for reduction of A. baumannii bacterial load, deep thigh infection model: neutropenic mice, peptides intraperitoneally. As for the experimental part:
Six-week-old female CD-1 mice were rendered neutropenic by two doses of cyclophosphamide (150 mg kg^−1 and 100 mg kg^−1) applied intraperitoneally 3 and 1 d before the infection. On day 4 of the experiment, the mice were infected in their right thighs with a 100-μl intramuscular injection of the A. baumannii ATCC 19606 in PBS at concentration of 5 × 10^6 CFU ml^−1. The bacterial cells were grown in LB broth, washed twice with PBS solution and diluted at the desired concentration. The peptides were administrated intraperitoneally 2 h after the infection. Two days after infection mice were euthanized, and the tissue from the right thigh was excised, homogenized using a bead beater (25 Hz for 20 min), tenfold serially diluted, and plated on McConkey agar plates for bacterial colony counting. The experiments were performed using six mice per group. Mice were housed in groups of three and maintained under a 12-h light/dark cycle at 22 °C with humidity controlled at 50%. The deep thigh infection mouse model was revised and approved by University Laboratory Animal Resources from the University of Pennsylvania (protocol 807055).
(§5) Figure S6. Cytotoxicity and anti-infective activity of designed peptides. (a) Cytotoxic effects of increasing concentrations ([…]) of each peptide on human embryonic kidney (HEK293T) cells after 24 h of treatment. Mouse weight was monitored throughout the duration of the (b) skin abscess model (4 days total) and the (e) deep thigh infection model (8 days total) to assess potential toxic effects of both the bacterial load and the designed peptides. (c) Schematic of the neutropenic thigh infection mouse model, where the designed peptides were administered intraperitoneally. Anti-infective activity against A. baumannii ATCC 19606 was evaluated 4 days after intraperitoneal peptide administration (n = 6). (d) Four days after intraperitoneal injection, NE2 at its MIC (32 µmol L-1) inhibited by […]
as §4

A short description of data set [6]: Mouse weight in the skin abscess model. The arrangement: species or system CD-1 mice. Conditions: in vivo. As for the experimental part: The backs of six-week-old female CD-1 mice under anaesthesia were shaved and injured with a superficial linear skin abrasion made with a needle. An aliquot of A. baumannii ATCC 19606 (2 × 10^6 CFU ml^−1; 20 μl) previously grown in LB medium until 0.5 optical density ml^−1 (optical value at 600 nm) and then washed twice with sterile PBS (pH 7.4, 9,391 g for 3 min) was added to the scratched area. Peptides diluted in sterile water at MIC value were administered to the wound area 1 h after the infection. Two and four days after infection animals were euthanized, and the scarified skin was excised, homogenized using a bead beater (25 Hz for 20 min), tenfold serially diluted, and plated on McConkey agar plates for CFU quantification. The experiments were performed using six mice per group. Mice were housed in groups of three and maintained under a 12-h light/dark cycle at 22 °C with humidity controlled at 50%. The skin abscess infection mouse model was revised and approved by University Laboratory Animal Resources from the University of Pennsylvania (protocol 806763).
as §5, §4

For another data set, the system named is P. aeruginosa PAO1. In kind it is cell-based, Pseudomonas aeruginosa. Conditions: PAO1, 24 h. As for the experimental part:
as §1, §3
(§6) Broth microdilution assays[64] were conducted to establish the MIC for each peptide. […]

For another data set, the system named is P. aeruginosa PA14. In kind it is cell-based, Pseudomonas aeruginosa. Conditions: PA14, 24 h. As for the experimental part: as §1, §3, §6
The next data set concerns HEK293T cells. Conditions: cited from earlier work.
Where [7] appears, read: broth microdilution, LB, 10^6 CFU ml^-1, peptides 1-64 μmol l^-1, 24 h, 37 °C, OD600, mode of three replicates.

Experimental for HEK293T cells: Cytotoxicity was evaluated using human embryonic kidney (HEK293T) cells (Fig. 3e)[45].

The term MIC denotes the smallest concentration in the dilution series that meets the test's criterion for growth inhibition. Take HWKLIVRWKVQH [NG1]: the MIC with E. coli ATCC 11775 is 16 µM; in data set [1] it was 4 µM; in the data set with A. baumannii ATCC 19606 [2] (ATCC 19606, 24 h) it was 4 µM; in the data set with A. baumannii ATCC 19606 [2] (setting [7]), 4 µM; in the data set on K. pneumoniae ATCC 13883, 4 µM; in the data set on P. aeruginosa PAO1, 32 µM. The minimum inhibitory concentration (MIC) in the data set with P. aeruginosa PA14 worked out at 16 µM. Further, the “weight loss or skin damage” value in data set [3] and in data set [6] was “No weight loss or skin damage” in each case. In addition, in the data set with A. baumannii ATCC 19606 [4], the “reduction of A. baumannii bacterial load, skin abscess model” value is reported as “up to two orders of magnitude; also recorded: inhibited the proliferation of the infection for up to 4 d after treatment”. In addition, the “reduction of A. baumannii bacterial load, deep thigh infection model” value in the data set with A. baumannii ATCC 19606 [5] is given as “up to two orders of magnitude”.

For the sequence KWKARIQFKAAH [NE2], the MIC in the data set on E. coli ATCC 11775 is 16 µM; in [1], 32 µM; in the data set on A. baumannii ATCC 19606 [2] (ATCC 19606, 24 h), 32 µM; with A. baumannii ATCC 19606 [2] (setting [7]), 32 µM; in the data set on K. pneumoniae ATCC 13883, 16 µM; against P. aeruginosa PAO1, 64 µM. For the same sequence, the “weight loss or skin damage” value in data set [3] and in data set [6] was “No weight loss or skin damage” in each case. Moreover, the “reduction of A. baumannii bacterial load, skin abscess model” value in the data set with A. baumannii ATCC 19606 [4] is “up to two orders of magnitude; also recorded: inhibited the proliferation of the infection for up to 4 d after treatment”. In addition, the “inhibition of the A. baumannii ATCC19606 infection against the untreated control” value with A. baumannii ATCC 19606 [5] (four days after intraperitoneal injection, at its MIC) is on record as “one order of magnitude”. Besides, in the data set on A. baumannii ATCC 19606 [5], the “reduction of A. baumannii bacterial load, deep thigh infection model” value is “up to two orders of magnitude”.

KWRLLIRWRIQK [IDR-2009]: the “cytotoxicity of the parental peptide” value with HEK293T cells was “did show cytotoxicity”.
